Values joined by “and” are separate entries in the source; they are usually repeats but may differ in a detail not shown here. Equal values may be shown once.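 Growth conditions: 96-well plates. Treatment: test compound, 48 hours, 5 concentrations. Analysis: linear interpolation between bracketing concentrations; unreached endpoints set to highest concentration. The concentration for 50% growth inhibition is given as GI50. TGI marks complete inhibition of growth.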
Experiments:
Test in all cases: NCI tumour cell line growth inhibition, 48 h
SR leukemia = test system: SR leukemia
SN12C renal = test system: SN12C renal
DMS 273 small cell lung = test system: DMS 273 small cell lung
COLO 205 colon = test system: COLO 205 colon
SK-MEL-2 melanoma = test system: SK-MEL-2 melanoma
XF 498 CNS = test system: XF 498 CNS
SK-MEL-5 melanoma = test system: SK-MEL-5 melanoma
T-47D breast = test system: T-47D breast
PC-3 prostate = test system: PC-3 prostate
NCI/ADR-RES ovarian = test system: NCI/ADR-RES ovarian
BT-549 breast = test system: BT-549 breast

SMILES | TGI (SR leukemia) | TGI (SN12C renal) | TGI (DMS 273 small cell lung) | TGI (COLO 205 colon) | TGI (SK-MEL-2 melanoma) | TGI (XF 498 CNS) | TGI (SK-MEL-5 melanoma) | TGI (T-47D breast) | TGI (PC-3 prostate) | TGI (NCI/ADR-RES ovarian) | TGI (BT-549 breast) | GI50 (SN12C renal) | GI50 (DMS 273 small cell lung)
CCCCCCCCCCCCCCCCNc1cccc2ccccc12 | > 100 µM | > 100 µM | > 100 µM | > 100 µM |  |  |  |  |  |  |  |  | 
CCOC(=O)C1S/C(=N\C(=N)N[N+](=O)[O-])N=C1C (configuration not stated) | > 100 µM | > 100 µM |  | > 100 µM | > 100 µM | > 100 µM |  |  |  |  |  |  | 
O=C1OCC/C1=N/O | > 100 µM | > 100 µM | > 100 µM | > 100 µM | > 100 µM |  | > 100 µM |  |  |  |  |  | 
CC(O)CNC(=O)C(C)Oc1ccc(OCC2CCCCC2)cc1 (configuration not stated) |  | > 100 µM | > 100 µM |  | > 100 µM | > 100 µM | > 100 µM |  |  |  |  |  | 
CCOC(=O)c1cccc(N=Nc2nc[nH]c2/C=C/C(=O)OC)c1 | 12 µM | 68.1 µM |  | > 100 µM | 63.5 µM |  | 36.9 µM | > 100 µM | > 100 µM | > 100 µM | > 100 µM |  | 
CC1(C)[C@@H]2CC[C@@]1(C)CN(CCC[N+](C)(C)C)C2 | > 100 µM | > 100 µM |  | > 100 µM | > 100 µM |  | > 100 µM | > 100 µM | > 100 µM | > 100 µM | > 100 µM |  | 
CCN1CN(c2ccccc2)C2(CCN(CC3COc4ccccc4O3)CC2)C1=O (configuration not stated) | > 100 µM | > 100 µM |  | 31.5 µM | 30.7 µM |  | 32.1 µM | 67.4 µM | 79.2 µM | > 100 µM | 34.7 µM |  | 
C[N+](C)([O-])CCOc1cc2c(c3ccccc13)-c1ccccc1C2=O |  | 62.3 µM | 43.9 µM | 32.3 µM | 33.2 µM | 37.9 µM | 28.7 µM |  |  | > 100 µM |  |  | 
NCCCN1c2ccccc2Sc2ccc(Cl)cc21 | > 8.89 µM | > 10 µM |  | 3.27 µM | > 10 µM |  | > 5.52 µM | > 9.08 µM | > 10 µM | > 10 µM | > 10 µM |  | 
Cc1cccc(C)c1NC(=O)C(Cc1c[nH]c2ccccc12)NC(=O)OCc1ccccc1 (configuration not stated) | 85.7 µM | 80.7 µM |  | 27.6 µM | 34.4 µM |  | 28.9 µM | 61.2 µM | 28.8 µM | 40.3 µM | 65.3 µM |  | 
Cc1nn(-c2ccccc2)c2c1C(c1cc3ccccc3nc1Cl)NC(=O)N2 (configuration not stated) | > 100 µM | 67.5 µM |  | 41.1 µM | 29.5 µM |  | 31.3 µM | > 100 µM | 43.7 µM | > 100 µM | 36.8 µM |  | 
COC1=CC(=O)c2c(c(-c3nc(C)cs3)cn2C)C1=O | > 50.8 µM | 27 µM |  | 37.6 µM | 10.8 µM |  | 2.88 µM | 53.4 µM | > 55.4 µM | 31 µM | > 57.4 µM |  | 
O=c1[nH][nH]c(=O)n1CCCCCCn1c(=O)[nH][nH]c1=O | > 100 µM | > 100 µM |  | > 100 µM | > 100 µM |  | > 100 µM | > 100 µM | > 100 µM | > 100 µM | > 100 µM |  | 
OC[C@H]1O[C@@H]2O[C@@](COCc3ccccc3)([C@H](OCc3ccccc3)[C@H]2O)[C@@H]1OCc1ccccc1 | 5.83 µM | 29.2 µM |  | 35 µM | 32 µM |  | 29.2 µM | 33 µM | 28 µM | 36.1 µM | 37.2 µM |  | 
CCOC(=O)N1CCC(N[C@@H]2c3cc4c(cc3C(c3cc(OC)c(O)c(OC)c3)C3C(=O)OC[C@@H]32)OCO4)CC1 (some centres not stated) | 3.21 µM and > 25 µM | 2.93 µM and 1.34 µM | 6.03 µM and 9.02 µM | 15.1 µM and 13.1 µM | 14.9 µM and 11.3 µM |  | 5.71 µM and 5.32 µM |  |  |  |  | 1.21 µM and 0.366 µM | 0.18 µM and 1.55 µM
O=[N+]([O-])C(=C(Nc1cccc2cccnc12)Nc1cccc2cccnc12)C(Cl)=C(Cl)Cl | > 100 µM | > 95.7 µM |  | > 100 µM | > 54 µM |  | 30.5 µM | > 100 µM | > 100 µM | > 94 µM | > 100 µM |  | 

SMILES | TGI (SR leukemia) | TGI (SN12C renal) | TGI (DMS 273 small cell lung) | TGI (COLO 205 colon) | TGI (SK-MEL-2 melanoma) | TGI (XF 498 CNS) | TGI (SK-MEL-5 melanoma) | TGI (T-47D breast) | TGI (PC-3 prostate) | TGI (NCI/ADR-RES ovarian) | TGI (BT-549 breast) | GI50 (SN12C renal) | GI50 (DMS 273 small cell lung)
O=S(=O)(O)C(CO)c1ccccc1 (configuration not stated) (tested in a mixture with another compound) | > 100 µM | > 100 µM |  | > 100 µM | > 100 µM |  | > 100 µM | > 100 µM | > 100 µM | > 100 µM | > 100 µM |  | 
O=C(O)CN1CCNCCN(CC(=O)O)CCN(CC(=O)O)CCNCC1 | > 100 µM | > 100 µM |  | > 100 µM | > 100 µM |  | > 100 µM | > 100 µM | > 100 µM | > 100 µM | > 100 µM |  | 
C=CCc1cc(-c2nc(=S)[nH][nH]2)ccc1N=NNc1ccc(C(=O)O)cc1 | > 100 µM | > 100 µM |  | 58 µM | > 100 µM |  | 60.1 µM | 70.2 µM | > 100 µM | > 100 µM | 73.8 µM |  | 
O=C(/C=C/c1ccccc1)Oc1ccc(C(=O)/C=C/c2ccccc2)cc1 | 6.82 µM | 15.2 µM |  | 21 µM | > 66.1 µM |  | 37 µM | 15.6 µM | > 64.9 µM | 21.9 µM | 17.7 µM |  | 
CCCCCCCCCCCC[S+](C)C | > 100 µM | 15.3 µM | 17.2 µM | 5.15 µM | 17.6 µM | 6.71 µM | 9.25 µM | 3.37 µM | 9.92 µM | > 91.9 µM | 7.68 µM |  | 
Cc1ccc(/C=N\NC2c3cc(Cl)ccc3Nc3nc(=O)[nH]c(C)c32)cc1 (configuration not stated) | > 100 µM | > 100 µM | > 100 µM | > 100 µM | > 100 µM | > 100 µM |  |  |  |  |  |  | 
CNc1cc2c(c3ccccc13)C(CCl)CN2C(=O)c1cc2cc(OC)c(OC)c(OC)c2[nH]1 (configuration not stated) | 0.00402 µM | 0.00628 µM and 0.0118 µM |  | 0.0114 µM | 0.0197 µM |  | 0.00435 µM | 0.0756 µM and 0.405 µM | 0.0223 µM and 0.116 µM | 0.0156 µM | 0.0333 µM |  | 
CC(C)SC(=S)Sc1c(Cl)c(Cl)nc(Cl)c1Cl | 11.3 µM | 27.6 µM |  | 24.7 µM | 22.4 µM |  | 29.1 µM | 4.39 µM | 16 µM | 61.2 µM | 34.2 µM |  | 
COC(=O)/C=C\C(C#N)(C#N)N=Cc1ccc(C)cc1 | 3.8 µM | 29.8 µM |  | 4.56 µM | 32.1 µM |  | 26.9 µM | 4.61 µM | 15.2 µM | 10.9 µM | 11.2 µM |  | 
On1c(-c2ccccc2)c(-c2ccccc2N2CCCC2)c2ccccc21 | > 100 µM | > 100 µM | > 100 µM | > 100 µM | > 100 µM | > 100 µM | > 100 µM |  |  |  |  |  | 
O=C1c2cc(-c3ccccc3)cnc2S(=O)(=O)N1c1ccc(Br)cc1 | 35 µM | > 100 µM |  | > 100 µM | > 100 µM |  | > 100 µM | > 100 µM | > 100 µM | > 100 µM | > 100 µM |  | 
N#CC(C#N)=C1SC(=Nc2ccccc2)C(=Nc2ccccc2)N1c1ccccc1 | > 26.2 µM | 77.2 µM |  | 30.2 µM | 44.3 µM |  | 28.7 µM | 18 µM | 25.1 µM | 97.1 µM | 21.5 µM |  | 
COc1cc(OC)c2c(=O)cc(-c3ccc(OC)c(OC)c3OC)oc2c1 |  | > 100 µM |  | > 100 µM | > 100 µM | > 100 µM |  |  |  |  |  |  | 
Cc1cc(/N=C/c2ccc(N(C)C)cc2)n(-c2ccccc2)n1 | > 100 µM | > 100 µM |  | > 100 µM | > 100 µM |  | > 100 µM | 89.5 µM | > 100 µM | > 100 µM | > 100 µM |  | 
O=C(O)CN1CCN2CCCCCN(CC1)CCN(CC(=O)O)CC2 | > 100 µM | > 100 µM |  | > 100 µM | > 100 µM |  | > 100 µM | > 100 µM | > 100 µM | > 100 µM | > 100 µM |  | 

— PubChem BioAssay (NCI)
